Laboratory results taken from patent EP4790066A1, “GLP-1R/GIPR/GCGR TRIPLE AGONIST ANALOGUE AND USE THEREOF” (Shenzhen Bay Laboratory, priority 2023, dated 2025).

Legend:
Format in all cases: cell-based
GLP-1R [1] = target: T1, GLP-1R (Homo sapiens, UniProt P43220); assay: CreLuc method (CRE-luciferase reporter), HEK293/pGM-CREB-L-Luc/GLP-1R pool; conditions: 6 h incubation, read-out: EC50 (pM) for each receptor GLP-1R
T1 construct: expressed in transfected cells
Summary of the method: (§1)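 Stable HEK293 pools co-expressing each receptor with a CRE-luciferase reporter were plated at 20,000 cells/well in freestyle medium and treated with compound dilution series for 6 h at 37 °C. Luminescence was read with ONE-GLO to derive EC50.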

GIPR [2] = target: T2, GIPR (Homo sapiens, UniProt P48546); assay: CreLuc method (CRE-luciferase reporter), HEK293/pGM-CREB-L-Luc/GIPR pool; conditions: 6 h incubation, read-out: EC50 (pM) for each receptor GIPR
T2 construct: expressed in transfected cells
T2 sequence (P48546 22-466): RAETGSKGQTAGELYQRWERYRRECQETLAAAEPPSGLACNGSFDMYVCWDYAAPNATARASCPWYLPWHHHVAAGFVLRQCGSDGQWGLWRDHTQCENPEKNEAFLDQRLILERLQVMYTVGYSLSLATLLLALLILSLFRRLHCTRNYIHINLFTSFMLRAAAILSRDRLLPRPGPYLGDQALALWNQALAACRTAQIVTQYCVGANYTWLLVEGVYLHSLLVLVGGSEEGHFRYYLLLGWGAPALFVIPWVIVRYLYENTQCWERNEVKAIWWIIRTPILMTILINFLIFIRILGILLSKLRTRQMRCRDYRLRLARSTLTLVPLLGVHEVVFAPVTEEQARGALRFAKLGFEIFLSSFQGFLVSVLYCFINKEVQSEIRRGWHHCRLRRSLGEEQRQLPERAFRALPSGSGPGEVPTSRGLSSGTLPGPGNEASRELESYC
Summary of the method: as §1

GCGR [3] = target: T3, GCGR (Homo sapiens, UniProt P47871); assay: CreLuc method (CRE-luciferase reporter), 293HEK/pGM-CREB-L-Luc/GCGR pool; conditions: 6 h incubation, read-out: EC50 (pM) for each receptor GCGR
T3 construct: expressed in transfected cells
T3 sequence (P47871 26-477, species assumed): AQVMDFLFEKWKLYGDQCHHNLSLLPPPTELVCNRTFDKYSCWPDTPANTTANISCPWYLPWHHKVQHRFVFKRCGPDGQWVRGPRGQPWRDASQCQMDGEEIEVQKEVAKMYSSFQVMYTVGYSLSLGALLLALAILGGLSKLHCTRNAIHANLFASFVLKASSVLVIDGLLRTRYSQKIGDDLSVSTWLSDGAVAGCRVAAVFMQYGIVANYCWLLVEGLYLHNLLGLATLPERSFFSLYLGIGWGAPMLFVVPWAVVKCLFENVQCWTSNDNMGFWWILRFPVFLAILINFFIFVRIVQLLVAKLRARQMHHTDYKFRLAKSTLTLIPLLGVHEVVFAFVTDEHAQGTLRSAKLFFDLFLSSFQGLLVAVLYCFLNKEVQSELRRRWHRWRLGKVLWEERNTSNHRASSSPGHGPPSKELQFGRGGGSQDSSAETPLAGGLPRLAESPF
Summary of the method: as §1

GLP-1R [4] = target: T1, GLP-1R; assay: cAMP method (HTRF cAMP detection kit), HEK293/pGM-CREB-L-Luc/GLP-1 pool; conditions: read-out: EC50 (pM) for each receptor GLP-1R
Protocol: 2. Insulinotropic analogues can bind to target receptors on the cell membrane, activate the receptors, and induce release. The activity of the test substance can be determined using the HTRF method with a cAMP detection kit. Therefore, the cAMP method can be used to detect the target peptide derivatives (or polypeptide derivatives, i.e., TG1-TG86) prepared in Example 1 and Example 2. […] The test cell line was selected, treated with cAMP-specific trypsin for digestion. 3 mL of serum-free DMEM culture medium was added, and the cells were pipetted, resuspended, and counted. 5 µL of IBMX (prepared with serum-free DMEM medium, 0.5 mM) and test cells (5 µL/7500 cells/well) were added in a 384-well plate sequentially. The plate was incubated at 37°C under 5% CO2 for 30 min, followed by the addition of cAMP-d2 (5 µL, 1x) and Anti-cAMP-Cryptate (5 µL, 1x). The mixture was kept at room temperature for 1 h, after which the HTRF value was measured using a chemiluminescent microplate reader, and the determination result was recorded. […] Table 4: EC50 values for target peptide derivatives

GIPR [5] = target: T2, GIPR; assay: cAMP method (HTRF cAMP detection kit), HEK293/pGM-CREB-L-Luc/GIP pool; conditions: read-out: EC50 (pM) for each receptor GIPR
GCGR [6] = target: T3, GCGR; assay: cAMP method (HTRF cAMP detection kit), HEK293/pGM-CREB-L-Luc/GCG pool; conditions: read-out: EC50 (pM) for each receptor GCGR

T1 sequence (P43220 24-463, species assumed): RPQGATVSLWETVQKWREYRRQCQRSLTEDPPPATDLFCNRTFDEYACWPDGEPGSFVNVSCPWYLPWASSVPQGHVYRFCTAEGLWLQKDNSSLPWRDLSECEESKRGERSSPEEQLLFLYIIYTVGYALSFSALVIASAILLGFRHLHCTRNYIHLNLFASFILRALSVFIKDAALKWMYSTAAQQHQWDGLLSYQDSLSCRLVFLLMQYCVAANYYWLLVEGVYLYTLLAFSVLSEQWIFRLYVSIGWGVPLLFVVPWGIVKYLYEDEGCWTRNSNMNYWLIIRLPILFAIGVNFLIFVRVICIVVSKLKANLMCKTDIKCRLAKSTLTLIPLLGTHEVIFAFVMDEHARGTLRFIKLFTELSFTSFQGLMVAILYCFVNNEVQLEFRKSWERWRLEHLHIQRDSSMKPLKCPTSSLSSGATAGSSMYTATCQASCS

CC[C@H](C)[C@@H]1NC(=O)[C@H](Cc2ccccc2)NC(=O)[C@@H](NC(=O)C(C)(C)NC(=O)[C@H](CCC(N)=O)NC(=O)[C@H](C)NC(=O)[C@H](CCCCNC(C)=O)NC(=O)[C@H](CCCCN)NC(=O)[C@H](CC(=O)O)NC(=O)[C@H](CC(C)C)NC(=O)[C@](C)(CC(C)C)NC(=O)[C@@H](NC(=O)[C@H](CO)NC(=O)[C@H](Cc2ccc(O)cc2)NC(=O)[C@H](CC(=O)O)NC(=O)[C@H](CO)NC(=O)[C@@H](NC(=O)[C@H](Cc2ccccc2)NC(=O)[C@@H](NC(=O)CNC(=O)[C@H](CCC(N)=O)NC(=O)C2(NC(=O)[C@@H](N)Cc3ccc(O)cc3)CCC2)[C@@H](C)O)[C@@H](C)O)[C@@H](C)CC)CSCC(=O)NCCN(C(=O)CCC(=O)NCCOCCOCC(=O)NCCOCCOCC(=O)NCCCC[C@H](NC(=O)CCCCCCCCCCCCCCCCCCC(=O)O)C(=O)O)CCNC(=O)CSC[C@@H](C(=O)NCC(=O)NCC(=O)N2CCC[C@H]2C(=O)N[C@@H](CO)C(=O)N[C@@H](CO)C(=O)NCC(=O)N[C@@H](C)C(=O)N2CCC[C@H]2C(=O)N2CCC[C@H]2C(=O)N2CCC[C@H]2C(=O)N[C@@H](CO)C(N)=O)NC(=O)[C@H](CC(C)C)NC(=O)[C@H](CC(C)C)NC(=O)[C@H](Cc2ccc(O)cc2)NC(=O)[C@H](CCC(=O)O)NC1=O [TG43]
EC50 (GLP-1R [1]): 57.1 pM
EC50 (GIPR [2]): 13.6 pM
EC50 (GCGR [3]): 78.7 pM
EC50 (GLP-1R [4]): 1.3 pM
EC50 (GIPR [5]): 6.4 pM
EC50 (GCGR [6]): 3.8 pM
